“Also recorded” adds a separate entry of the source.
How the values were obtained:
[1] = system: total lung sialidase (NEU) activity; experiment: Total sialidase (NEU) activity for 4-MU-NANA in mouse lung after in vivo dosing; set-up: lung sialidase activity: dose or concentration left out as unconfirmed; details: for total lung sialidase activity: 15 mg/kg ip, harvested 18 h later
Method: Wild-type female C57BL/6 mice aged 10-12 weeks and weighing 18-20 g (The Jackson Laboratory, Bar Harbor, Me.) were treated in accordance with a research protocol approved by the University of Maryland Institutional Animal Care and Use Committee. Animals were maintained in sterile microisolator cages with sterile rodent feed and water in the Baltimore VA Medical Center Research Animal Facility approved by the Association for Assessment and Accreditation of Laboratory Animal Care. To model pulmonary inflammation and fibrosis, a single dose of 0.075 U of bleomycin (BLM)(Sigma-Aldrich, St. Louis, Mo.) diluted in 50 μl of sterile phosphate-buffered saline (PBS) was intratracheally (i.t.) delivered to mouse lungs on day 0. Briefly, a minor anterior midline neck incision was made to reveal the trachea, and a MicroSprayer® (Penn-Century, Wyndmoor, Philadelphia, Pa.) was inserted i.t., and the bleomycin or sterile PBS alone instilled. […] On day 14, mice were euthanized by CO2 asphyxiation followed by cervical dislocation. Immediately postmortem, bronchoalveolar lavage fluid (BALF)s and lungs were harvested. BALF samples were collected and analyzed. Installation and withdrawal of 1 ml of PBS twice via an 18-gauge blunt-end needle secured in the trachea were performed in each animal The 2 aliquots of BALF were pooled, centrifuged, and total and differential cell counts performed. The lungs were processed for qRT-PCR, to measure levels for NEU 1-4, PPCA, collagen 1α2, and collagen 3α1transcripts, quantitative immunoblotting for NEU1-4 and PPCA proteins, and determination of hydroxyproline as a measure of total collagen. In selected experiments, lung tissue was processed for assays of total sialidase activity for fluorogenic substrate, 2′-(4-methylumbelliferyl)-α-D-N-acetylneuraminic acid (4-MU-NANA) and peanut agglutinin (PNA) lectin blotting as an indicator of desialylation.
Fluorometric Assay for Sialidase Activity: Lungs harvested from mice pretreated with one of three sialidase inhibitors or saline alone were weighed, homogenized, centrifuged, and the supernatants collected. These samples and SAECs, HPMECs, and NHLFs preincubated with increasing concentrations of the NEU1-selective NEU inhibitor, III-32B5 were suspended in 200μλ of 500 mM sodium acetate, pH 4.4 containing 0.1% Triton X-100, and a protease inhibitor mixture (Roche Applied Science), and then incubated for 1 h at 37° C. with 25 μl of 2.0 mM 2′-(4-methylumbelliferyl)-α-D-N-acetylneuraminic acid (4-MU-NANA), mixing the tubes every 15 min. The NEU reaction was terminated by addition of 133 mM glycine, pH 10.3, 60 mM NaCl, and 0,083 M […] after which the fluorescence intensity was measured with a Bio-Rad fluorometer (excitation at 355 nm; emission at 460 nm). […]

[2] = system: bleomycin-challenged C57BL/6 mice; experiment: Bleomycin-induced pulmonary fibrosis model; type: in vivo, mouse; details: for BALF total cell counts, lymphocytes, and neutrophils / lung collagen mRNA (collagen 1A2, collagen 3A1; qRT-PCR) / lung collagen protein (hydroxyproline-based QuickZyme assay): 15 mg/kg i.p. daily days 8-14, day 14, vs bleomycin alone; for total body weight: 15 mg/kg i.p. daily on days 8-14 after bleomycin, by day 14
Method: Wild-type female C57BL/6 mice aged 10-12 weeks and weighing 18-20 g (The Jackson Laboratory, Bar Harbor, Me.) were treated in accordance with a research protocol approved by the University of Maryland Institutional Animal Care and Use Committee. Animals were maintained in sterile microisolator cages with sterile rodent feed and water in the Baltimore VA Medical Center Research Animal Facility approved by the Association for Assessment and Accreditation of Laboratory Animal Care. To model pulmonary inflammation and fibrosis, a single dose of 0.075 U of bleomycin (BLM)(Sigma-Aldrich, St. Louis, Mo.) diluted in 50 μl of sterile phosphate-buffered saline (PBS) was intratracheally (i.t.) delivered to mouse lungs on day 0. Briefly, a minor anterior midline neck incision was made to reveal the trachea, and a MicroSprayer® (Penn-Century, Wyndmoor, Philadelphia, Pa.) was inserted i.t., and the bleomycin or sterile PBS alone instilled. Mice were serially weighed, and on days 8-14, daily administered intraperitoneally (i. p.) with 15 mg/kg of 2DN, or […], or III-32B5, or vehicle alone. On day 14, mice were euthanized by CO2 asphyxiation followed by cervical dislocation. Immediately postmortem, bronchoalveolar lavage fluid (BALF)s and lungs were harvested. BALF samples were collected and analyzed. Installation and withdrawal of 1 ml of PBS twice via an 18-gauge blunt-end needle secured in the trachea were performed in each animal The 2 aliquots of BALF were pooled, centrifuged, and total and differential cell counts performed. […] Total cellular RNA was extracted from murine lung tissue. RNA purity was established with the A260/A280 absorption ratio (>1.90). Total RNA (1.0 μg) was treated with DNase I (Invitrogen) for 15 min and reverse transcribed using avian myeloblastosis virus reverse transcriptase and poly(T) primer (Promega). The resulting cDNA was quantified by real time quantitative reverse transcription-polymerase chain reaction (qRT-PCR) using SYBR Green PCR Master Mix and ABI Prism 7900HT cycler. […] Measurement of Total Lung Collagen: Collagen content was measured in lung tissue based on detection of hydroxyproline, using the Total Collagen Assay kit from QuickZyme (Leiden, The Netherlands). Briefly, following hydrolysis of 50 mg lung tissue in […] of 6M HCl for 20 h at 95° C., the hydrolysate was diluted 10-fold with 4M HCl and measured against serial dilutions of collagen standard; the results were expressed as μg collagen per mg wet lung tissue. Mice challenged I.T. with bleomycin were serially weighed, and on days 8-14, daily administered i.p. 2DN or vehicle alone. On day 14, mice were sacrificed, and BALF and lungs harvested. The BALF was processed for total and differential cell counts, and lung tissues were collagenase-digested for lymphocyte counts and flow cytometry, processed for qRT-PCR for collagen mRNA expression, or homogenized for hydroxyproline-based assays to quantify collagen protein (FIG. 1C, 1D, 1E). In all bleomycin-challenged mice, total body weight decreased through days 1-7 (FIG. 1B). While the saline-injected, bleomycin-challenged mice continued to lose body weight through the 14-day study period, on days ≥9, the 2DN-treated, bleomycin-administered mice maintained and even increased body weight. […] On day 14, total and differential BALF cell counts were performed (FIG. 1C). In the PBS-injected, bleomycin-challenged mice, total cell counts, macrophages, lymphocytes, and neutrophils each were increased compared to BALF cell counts for the simultaneous saline controls. The addition of broad-spectrum NEU inhibition with 2DN reversed the increased in total cell counts, lymphocytes, and neutrophils, each compared to counts in the PBS-injected, bleomycin-challenged mice. In these same mice, lung homogenates were processed for qRT-PCR using primers for collagen 1A2 and collagen 3A1 to quantify their mRNA expression (FIG. 1D). […]

[3] = system: SAECs (human primary small airway epithelial cells); details: cited from earlier work
[4] = system: HPMECs (human primary pulmonary microvascular endothelial cells); details: cited from earlier work
[5] = system: HLFs (human lung fibroblasts); details: cited from earlier work
[6] = system: BALF cell sialidase activity; experiment: Total BALF cell sialidase activity after in vivo dosing; set-up: species or system mouse; details: 15 mg/kg ip, re-injected after 24 h, harvested 18 h later; vs saline
Method: Fluorometric Assay for Sialidase Activity: Lungs harvested from mice pretreated with one of three sialidase inhibitors or saline alone were weighed, homogenized, centrifuged, and the supernatants collected. These samples and SAECs, HPMECs, and NHLFs preincubated with increasing concentrations of the NEU1-selective NEU inhibitor, III-32B5 were suspended in 200μλ of 500 mM sodium acetate, pH 4.4 containing 0.1% Triton X-100, and a protease inhibitor mixture (Roche Applied Science), and then incubated for 1 h at 37° C. with 25 μl of 2.0 mM 2′-(4-methylumbelliferyl)-α-D-N-acetylneuraminic acid (4-MU-NANA), mixing the tubes every 15 min. The NEU reaction was terminated by addition of 133 mM glycine, pH 10.3, 60 mM NaCl, and 0,083 M […] after which the fluorescence intensity was measured with a Bio-Rad fluorometer (excitation at 355 nm; emission at 460 nm).
After 24 h, the mice were administered these same injections, and 18 h later, were euthanized and their BALFs and lungs harvested. The lungs were processed for total protein levels and total sialidase activity. […] The BALFs from these same mice were processed for cell counts and sialidase activity. […] These findings establish the ability of each of 2 NEU1-selective pharmacologic inhibitors to profoundly reduce total lung and BALF cell sialidase activity in vivo. The NEU1 inhibitor can comprise C1-methyl esters of the compounds.

[7] = system: bleomycin-challenged C57BL/6 mice; experiment: Bleomycin-induced pulmonary fibrosis model; type: in vivo, mouse; details: 15 mg/kg; FIG. 6A
NEUs 2-4 = details: cited from earlier work
[8] = system: SAECs (human primary small airway epithelial cells); experiment: Fluorometric sialidase activity assay (4-MU-NANA) in SAECs; type: cell-based; details: increasing concentrations; 1.0×10^6 cells/reaction
Method: (§1) Human Lung Cell Cultures: Human primary small airway epithelial cell (SAEC)s isolated from the distal portion of the bronchioles and human primary pulmonary microvascular endothelial cell (HPMEC)s were purchased from Promocell (Heidelberg, Germany) SAECs were cultured in predefined small airway growth medium containing hydrocortisone, human epidermal growth factor, epinephrine, transferrin, insulin, retinoic acid, triiodothyronine, and fatty acid-free bovine serum albumin. Only SAEC passaged 2-4 were studied. HPMECs were cultured in endothelial cell growth medium (MV-2, PromoCell) containing growth medium supplement mix (PromoCell). Only HPMEC passages 4-7 were studied. Primary normal human lung fibroblast (NHLF)s were either isolated from normal lungs initially harvested from lung […] but ultimately not used in a study approved by the Institutional Review Board at the University of Maryland, or purchased from Lonza (Walkersville, Md.). […]
(§2) Fluorometric Assay for Sialidase Activity: Lungs harvested from mice pretreated with one of three sialidase inhibitors or saline alone were weighed, homogenized, centrifuged, and the supernatants collected. […] The NEU reaction was terminated by addition of 133 mM glycine, pH 10.3, 60 mM NaCl, and 0,083 M […] after which the fluorescence intensity was measured with a Bio-Rad fluorometer (excitation at 355 nm; emission at 460 nm). […]

[9] = system: HPMECs (human primary pulmonary microvascular endothelial cells); experiment: Fluorometric sialidase activity assay (4-MU-NANA) in HPMECs; type: cell-based; details: increasing concentrations; 1.0×10^6 cells/reaction
Method: as §1, §2

[10] = system: HLFs (human lung fibroblasts); experiment: Fluorometric sialidase activity assay (4-MU-NANA) in HLFs; type: cell-based; details: increasing concentrations; 1.0×10^6 cells/reaction
Method: as §1, §2

[11] = re-injected after 24 h, vs saline

sialidase activity in HLFs [10]	SMILES	reduction of total NEU activity in lung ([1]; 15 mg/kg i.p., re-injected after 24 h, lungs harvested 18 h later, vs saline)	BALF total cell counts, lymphocytes, and neutrophils [2]	lung collagen mRNA (collagen 1A2, collagen 3A1; qRT-PCR) [2]	lung collagen protein (hydroxyproline-based QuickZyme assay) [2]	total body weight [2]	sialidase activity in human airway epithelia, previously reported [3]	sialidase activity in human lung microvascular endothelia, previously reported [4]	sialidase activity in human lung fibroblasts, previously reported [5]	lung sialidase activity [1]	total lung sialidase activity [1, 11]	total BALF cell sialidase activity [6]	14-day collagen deposition, mean value ([2]; mice receiving both BLM and C9-BADANA, BLM alone 13.4±2.1 μg/mg)	lung collagen deposition [7]	IC50 (NEUs 2-4)	sialidase activity in SAECs [8]	sialidase activity in HPMECs [9]
–	CC(=O)N[C@H]1[C@H]([C@H](O)[C@H](O)CO)OC(C(=O)O)C[C@@H]1O (stereo partly drawn) [2DN, 2-deoxy-N-acetyneuraminic acid, reference compound]	at least 8 fold	reversed	reduced	reversed	returned to their pretreatment baseline	inhibition	inhibition	inhibition	–	–	–	–	–	–	–	–
–	CCCCC(=O)NC[C@H](O)[C@H](O)[C@@H]1OC(C(=O)O)=C[C@H](O)[C@H]1NC(C)=O [C9-BADANA]	–	reversed	protected against	protected against; also recorded: significantly decreased	returning to their pretreatment baselines; also recorded: counteracted	inhibition	inhibition	inhibition	dramatically reduces	reduced	reduced	8.6 ± 1.7 µg/mg	dramatically reduces	> 1000 µM	–	–
dose-dependently inhibited	CCCCCC(=O)N[C@H]1[C@H]([C@@H](O)[C@@H](O)CNC(C)=O)OC(C(=O)O)=C[C@@H]1O [III-32B5, C5-hexanamido-C9-acetamido-DANA]	–	reversed	protected against	protected against; also recorded: significantly decreased	returning to their pretreatment baselines; also recorded: counteracted	–	–	–	–	reduced	reduced	–	–	–	dose-dependently inhibited	dose-dependently inhibited
